In test [1] the test system is Ba/F3-EPOR JAK2V617F-mutated cells. In words: Cell proliferation in Ba/F3-EPOR JAK2V617F-mutated cells. Type of test: cell-based. Conditions: Mus musculus, read-out: IC50, cell proliferation. The protocol:
(§1) Mouse (Ba/F3 and Ba/F3-EPOR wild-type or expressing JAK2V617F(VF)) and human (JAK2VF mutated HEL and SET2) cell lines and primary MPN CD34+ cells from patients with myelofibrosis (MF) or polycythemia vera (PV) were used; BCR/ABL mutated K562 cells were used in some experiments. Cell proliferation, colony formation, apoptosis, cell cycle and protein phosphorylation status were evaluated. Effects of drug combination were analyzed according to Chou and Talalay to calculate the combination index (CI); a CI<1.0 indicates synergistic activity.

Test [2] deals with Ba/F3-EPOR JAK2 wild-type (wt) cells. In words: Cell proliferation in Ba/F3-EPOR JAK2 wild-type cells. Type of test: cell-based. Conditions: Mus musculus, read-out: IC50, cell proliferation. Here is the method:
as §1

The subject of test [3] is JAK2V617F-mutated HEL cells. The experiment in a line: Cell proliferation and colony formation in HEL cells. Conditions: Homo sapiens. The format is cell-based. Here is the method: as §1
The subject of test [4] is JAK2V617F-mutated SET2 cells. The experiment in a line: Cell proliferation and colony formation in SET2 cells. The format is cell-based. As to conditions: Homo sapiens, SET-2.
Test [5] relates to BCR/ABL mutated K562 cells. The experiment in a line: Cell proliferation in K562 cells. The format is cell-based. As to conditions: Homo sapiens. Here is the method:
as §1

Test [6] deals with cell lines (Ba/F3, Ba/F3-EPOR, HEL, SET2). The experiment in a line: Apoptosis (Annexin-V) in cell lines. The format is cell-based. As to conditions: at maximum / highest concentrations. Here is the method: as §1
Test [7] deals with EPO-independent colonies (EEC) of PV patients cells. In words: Erythropoietin-independent colony (EEC) assay. The format is cell-based, human. Conditions: for prevention of erythropoietin-independent colony (EEC) formation: primary cells from MPN patients. The protocol: as §1
(§2) Then, the activity of RAD001 and Compound A was analyzed in primary cells from MPN patients.

A further test relates to CD34+ cells of MF pts. The experiment in a line: Proliferation of CD34+ cells of MF patients. The format is cell-based. As to conditions: Homo sapiens. The protocol: as §1, §2
Test [8] concerns CD34+ cells of healthy donors. In words: Proliferation of CD34+ cells of healthy donors. Type of test: cell-based. Conditions: Homo sapiens.
In test [9] the test system is JAK2V617F mutated patients cells. In words: Single-colony genotyping in JAK2V617F mutated patients cells. Type of test: cell-based, human. As to conditions: n=7. The protocol:
as §2

In test [10] the test system is BaF3 JAK2V617F-luc+ cells. In words: SCID BaF3 JAK2V617F-luciferase mouse model. Type of test: in vivo. Conditions: daily per os, 60 mpk Compound B, 45 mpk Compound A. The protocol:
To ascertain the effects of drugs targeting PI3K/Akt/mTOR pathway alone and in combination with JAK2 inhibitor in a murine model of myeloproliferative neoplasms, a SCID BaF3 JAK2^V617F-luciferase mouse model was used. […] Female SCID mice (4-6 weeks of age; Harlan) were fed rodent standard chow and provided with water ad libitum. Mice were given 3×10^6 JAK2^V617F-luc+ cells by tail vein injection. Mice were injected with D-luciferin before imaging to detect a bioluminescence signal that is proportional to the clone burden. Baseline imaging was performed using a Photon Imager (Biospace Lab) apparatus to establish bioluminescence on day 6 after cell injection. […] Drugs treatment was administered daily per os (by mouth). Imaging was performed on day 7, 14, 21, and 28 after the first drug dose. Mice were followed daily for survival and humanely sacrificed when they developed hind limb paralysis or became moribund and considered deceased at the time at which they were sacrificed.

The subject of test [11] is JAK2 V617F Knock-in (KI) mouse. The experiment in a line: C57B16/J JAK2 V617F Knock-in (KI) mouse model. The format is in vivo. Conditions: KI mice treated for 5 days.
Experimental: Mice were treated for 5 days, then blood, spleen and bone marrow cells were obtained for further analysis.

Like-named read-outs stand apart in the source and are kept apart here.

As for `Cn1c(=O)n(-c2ccc(C(C)(C)C#N)cc2)c2c3cc(-c4cnc5ccccc5c4)ccc3ncc21` [Compound A, 2-methyl-2-[4-(3-methyl-2-oxo-8-quinolin-3-yl-2,3-dihydro-imidazo[4,5-c]quinolin-1-yl)-phenyl]-propionitrile], the IC50 is 87 ± 50 nM in test [1]; 676 ± 200 nM in test [2]; 387 ± 90 nM in test [3]; 334 ± 40 nM in [4]; 5 µM in test [5]; 20 ± 10 nM in [7] (Homo sapiens, PV patients cells, read-out: IC50, growth of EPO-independent colonies (EEC)). Further, the IC50 worked out at 43 ± 20 nM in the test with CD34+ cells of MF pts and 780 ± 150 nM in test [8]. In test [6], the “apoptosis / Annexin-V +ve cells” value is recorded as 30-40%. Further, in test [7], the “prevention of erythropoietin-independent colony (EEC) formation” value is recorded as “low nM range”. Moreover, the “reduction of VF in favor of wild-type colonies” value in test [9] (mean) is 40±16%. The “reduction of VF in favor of wild-type colonies, range” value in test [9] (range) is reported as 18-71%. Also, in test [10], the “MEAN LIFESPAN” value is 24 days. In addition, in [10], the “LIFESPAN INCREASE (%) VS VEHICLE” value is recorded as 42%. Also, in [11], the “median spleen index (ratio of spleen weight to body weight×100)” value was 35. The reticulocyte count median in [11] is on record as 50 No. per HPF.
In the case of `N#CC[C@H](C1CCCC1)n1cc(-c2ncnc3[nH]ccc23)cn1` [Compound B, (3R)-3-cyclopentyl-3-[4-(7H-pyrrolo[2,3-d]pyrimidin-4-yl)-1H-pyrazol-1-yl]propanenitrile], in test [10], the “MEAN LIFESPAN” value came to 19 days and the “LIFESPAN INCREASE (%) VS VEHICLE” value was 19%. This molecule displayed a reticulocyte count median in test [11] of 44 No. per HPF.
For `CO[C@H]1C[C@@H]2CC[C@@H](C)[C@@](O)(O2)C(=O)C(=O)N2CCCC[C@H]2C(=O)O[C@H]([C@H](C)C[C@@H]2CC[C@@H](OCCO)[C@H](OC)C2)CC(=O)[C@H](C)/C=C(\C)[C@@H](O)[C@@H](OC)C(=O)[C@H](C)C[C@H](C)/C=C/C=C/C=C/1C` [RAD001, reference compound], the values for the IC50 in test [1] (Ba/F3-EPOR JAK2V617F-mutated cells) and in [2] (Ba/F3-EPOR JAK2 wild-type cells) were 615 ± 50 nM and above 10000 nM, respectively. Also, the “prevention of erythropoietin-independent colony (EEC) formation” value in test [7] is recorded as “low nM range”.

The record behind these values is patent publication US9358229B2, “JAK PI3K/mTOR combination therapy” (Novartis Pharma AG, priority 2011, dated 2016).
